Assay [1] has as its target T1, purified HLA DRB1*0701 (Homo sapiens, UniProt P01903+P01911, A100R/A102G/A103Q/D57E/D86V/E43K/F76Y/K127E/L162R/M171V/P40G/Q125H/Q99D/R33Q/R42Y/R54Q/S133A/S66F/T210M/V115G/Y107V/Y59L/Y89S).
T1 construct: MHC molecules utilized were purified from EBV transformed homozygous cell lines or single MHC allele transfected 721.221, C1R, or fibroblast lines; made in house; host or cells: EBV transformed homozygous cell lines or single MHC allele transfected 721.221, C1R, or fibroblast lines
As to the kind of experiment: HLA-DR radioligand binding inhibition assay, DRB1*0701. As for the experimental part: (§1) Fifteen distinct HLA-DR molecules were used in quantitative assays to measure the binding of peptides to solubilized HLA-DR molecules. […] Briefly, columns of inactivated Sepharose CL4B and Protein A Sepharose were used as pre-columns. HLA-DR molecules were captured by passage of lysates over LB3.1 monoclonal antibody (anti-HLA-DRA) columns. Antibody columns were washed with 10 mM Tris-HCL, pH8.0 with 1% (v/v) NP-40, followed by PBS containing 0.4% (w/v) n-octylglucoside.
(§2) Briefly, 1-10 nM of radiolabeled peptide was co-incubated for 2 days at either room temperature or 37° C. with 1 μM to 1 nM purified HLA-DR molecules in the presence of a cocktail of protease inhibitors. Assays were performed at various pH conditions, ranging from pH 4 to pH 7. […] After incubation, the percentage of HLA-DR-bound radioactivity is determined by capturing HLA-DR/peptide complexes on Optiplates (Packard Instruments, Meriden, Conn.) coated with the LB3.1 antibody and determining bound counts per minute using the TopCount microscintillation counter (Packard Instruments).

Assay [2] deals with T2, purified HLA DRB1*1302 (Homo sapiens, UniProt P01903+P01911, A100E/A169T/K41T/L162R/M171V/P40S/Q125H/Q178H/Q39Y/Q99D/R42S/S66N/T262R/V115G/W38E/Y61H).
T2 construct: MHC molecules utilized were purified from EBV transformed homozygous cell lines or single MHC allele transfected 721.221, C1R, or fibroblast lines; made in house; host or cells: EBV transformed homozygous cell lines or single MHC allele transfected 721.221, C1R, or fibroblast lines
T2 sequence (P01903 26-254, other chains not shown): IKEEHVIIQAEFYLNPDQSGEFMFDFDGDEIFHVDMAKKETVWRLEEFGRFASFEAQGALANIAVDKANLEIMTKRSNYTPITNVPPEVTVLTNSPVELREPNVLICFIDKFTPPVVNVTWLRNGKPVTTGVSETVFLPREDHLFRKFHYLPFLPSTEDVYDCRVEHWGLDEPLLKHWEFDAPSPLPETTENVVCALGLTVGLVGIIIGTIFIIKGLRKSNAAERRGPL
The experiment in a line: HLA-DR radioligand binding inhibition assay, DRB1*1302. The following applies: column 6 of second part of Table I. As for the experimental part: as §1, §2

The target in assay [3] is T3, purified HLA DRB4*0101 (Homo sapiens, UniProt P01903+P13762, G164S).
T3 construct: MHC molecules utilized were purified from EBV transformed homozygous cell lines or single MHC allele transfected 721.221, C1R, or fibroblast lines; made in house; host or cells: EBV transformed homozygous cell lines or single MHC allele transfected 721.221, C1R, or fibroblast lines
As to the kind of experiment: HLA-DR radioligand binding inhibition assay, DRB4*0101. The procedure:
as §1, with “n-octylglucoside. […] The pH was reduced to 8.0 and the eluates were concentrated by centrifugation in Centriprep 30 concentrators at 2000 rpm (Amicon, Beverly, Mass.).” for “n-octylglucoside.”
as §2, with “Instruments). […] Competitor peptides are tested in 2-4 complete, independent experiments, at concentrations ranging from 30 μg/mL to 300 pg/mL.” for “Instruments).”

In assay [4] the target is T4, purified HLA DRB5*0101 (Homo sapiens, UniProt P01903+Q30154).
T4 construct: MHC molecules utilized were purified from EBV transformed homozygous cell lines or single MHC allele transfected 721.221, C1R, or fibroblast lines; made in house; host or cells: EBV transformed homozygous cell lines or single MHC allele transfected 721.221, C1R, or fibroblast lines
The experiment in a line: HLA-DR radioligand binding inhibition assay, DRB5*0101. The procedure:
as §1, with “n-octylglucoside. […] The pH was reduced to 8.0 and the eluates were concentrated by centrifugation in Centriprep 30 concentrators at 2000 rpm (Amicon, Beverly, Mass.).” for “n-octylglucoside.”
as §2, with “Instruments). […] Competitor peptides are tested in 2-4 complete, independent experiments, at concentrations ranging from 30 μg/mL to 300 pg/mL.” for “Instruments).”

In assay [5] the target is T5, purified HLA DRB1*0404 (Homo sapiens, UniProt P01903+P01911, A100R/A169T/F76Y/I96L/K127E/L162R/M171V/N62H/P40V/Q125Y/R42H/S133A/S149N/S66Y/V209L/W38E).
T5 construct: MHC molecules utilized were purified from EBV transformed homozygous cell lines or single MHC allele transfected 721.221, C1R, or fibroblast lines; made in house; host or cells: EBV transformed homozygous cell lines or single MHC allele transfected 721.221, C1R, or fibroblast lines
As to the kind of experiment: HLA-DR radioligand binding inhibition assay, DRB1*0404. The procedure:
as §1, with “n-octylglucoside. […] The pH was reduced to 8.0 and the eluates were concentrated by centrifugation in Centriprep 30 concentrators at 2000 rpm (Amicon, Beverly, Mass.).” for “n-octylglucoside.”
as §2, with “Instruments). […] Competitor peptides are tested in 2-4 complete, independent experiments, at concentrations ranging from 30 μg/mL to 300 pg/mL.” for “Instruments).”

The target in assay [6] is T6, purified HLA DRB1*1101 (Homo sapiens, UniProt P01903+P01911, A100R/A169T/A87E/I96F/K41T/L162R/M171V/P40S/Q125H/Q178H/Q39Y/Q99D/R42S/S66Y/T262R/V115G/W38E).
T6 construct: MHC molecules utilized were purified from EBV transformed homozygous cell lines or single MHC allele transfected 721.221, C1R, or fibroblast lines; made in house; host or cells: EBV transformed homozygous cell lines or single MHC allele transfected 721.221, C1R, or fibroblast lines
T6 sequence (P01903 26-254, other chains not shown): as above
As to the kind of experiment: HLA-DR radioligand binding inhibition assay, DRB1*1101. The procedure: as §1, with “n-octylglucoside. […] The pH was reduced to 8.0 and the eluates were concentrated by centrifugation in Centriprep 30 concentrators at 2000 rpm (Amicon, Beverly, Mass.).” for “n-octylglucoside.”
as §2, with “Instruments). […] Competitor peptides are tested in 2-4 complete, independent experiments, at concentrations ranging from 30 μg/mL to 300 pg/mL.” for “Instruments).”

Ends that are not written are not given here.

The record followed here is patent US10556943B2, “HLA-DR binding peptides and their uses” (priority 2007, dated 2020).

As for KELAVFREKVTEQHR [Peptide 9019.0186], the IC50 in assay [1] and in assay [2] was greater than 20 µM each time.

In the case of `CSCC[C@H](NC(=O)[C@H](CC(C)C)NC(=O)[C@H](CCC(=O)O)NC(=O)[C@H](Cc1c[nH]c2ccccc12)NC(=O)[C@@H](NC(=O)[C@@H](NC(=O)[C@@H](NC(=O)CNC(=O)[C@H](Cc1ccc(O)cc1)NC(=O)[C@H](CO)NC(=O)[C@H](Cc1c[nH]c2ccccc12)NC(=O)[C@@H](NC(=O)[C@H](CC(=O)O)NC(=O)[C@@H](N)CO)C(C)C)C(C)C)[C@@H](C)O)C(C)C)C(=O)N[C@H](C(=O)O)[C@@H](C)O` [Peptide 9019.0089], in assay [3], the IC50 – broadly, the point on the concentration scale where inhibition reaches its midpoint – was greater than 20 µM. In assay [4], `CC[C@H](C)[C@H](NC(=O)[C@@H](NC(=O)[C@H](Cc1ccc(O)cc1)NC(=O)CN)C(C)C)C(=O)NCC(=O)N[C@H](C(=O)N[C@@H](CCC(N)=O)C(=O)N[C@@H](CCC(N)=O)C(=O)N[C@@H](C)C(=O)N[C@H](C(=O)N1CCC[C@H]1C(=O)NCC(=O)N1CCC[C@H]1C(=O)N[C@@H](C)C(=O)N[C@@H](Cc1ccc(O)cc1)C(=O)O)[C@@H](C)O)[C@@H](C)O` [Peptide 9019.0110] registered an IC50 of 10.2 µM.

In the case of GDPLNNTTPVTGASP [Peptide 9019.0036], the IC50 in assay [1] is 13.2 µM. On the same count and under the same terms, to `CC[C@H](C)[C@H](NC(=O)[C@H](CC(=O)O)NC(=O)[C@H](CCCCN)NC(=O)[C@H](Cc1c[nH]c2ccccc12)NC(=O)[C@H](CC(C)C)NC(=O)[C@@H](NC(=O)[C@@H](NC(=O)[C@H](CC(=O)O)NC(=O)[C@H](CCC(N)=O)NC(=O)[C@H](Cc1ccc(O)cc1)NC(=O)[C@H](CS)NC(=O)[C@H](CC(C)C)NC(=O)[C@H](CCC(N)=O)NC(=O)[C@@H]1CCCN1C(=O)[C@@H](N)CC(N)=O)[C@@H](C)O)[C@@H](C)CC)C(=O)O` [Peptide 9019.0041] belongs greater than 20 µM. `CC(C)C[C@H](NC(=O)[C@@H]1CCCN1C(=O)[C@@H](NC(=O)[C@@H](NC(=O)[C@@H]1CCCN1C(=O)[C@H](CC(=O)O)NC(=O)[C@H](CCC(=O)O)NC(=O)[C@H](CO)NC(=O)[C@H](Cc1ccc(O)cc1)NC(=O)[C@H](CCCNC(=N)N)NC(=O)[C@H](CCC(N)=O)NC(=O)[C@@H](N)CC(C)C)[C@@H](C)O)C(C)C)C(=O)N1CCC[C@H]1C(=O)N[C@@H](CO)C(=O)N[C@@H](CCC(=O)O)C(=O)O` [Peptide 9019.0099] gave an IC50 in assay [5] of 13.1 µM. Regarding `CC[C@H](C)[C@H](NC(=O)[C@H](CCCCN)NC(=O)[C@H](CCCNC(=N)N)NC(=O)[C@@H](N)CCSC)C(=O)N[C@H](C(=O)N[C@@H](C)C(=O)N[C@H](C(=O)N[C@@H](Cc1c[nH]c2ccccc12)C(=O)N[C@@H](CCSC)C(=O)N[C@@H](CC(C)C)C(=O)N[C@@H](CCC(=O)O)C(=O)N[C@H](C(=O)N[C@@H](CS)C(=O)N[C@@H](CCC(=O)O)C(=O)N[C@@H](CCC(=O)O)C(=O)O)C(C)C)[C@@H](C)O)C(C)C` [Peptide 9019.0151], the IC50 in assay [6] is greater than 20 µM; in assay [5] it was greater than 20 µM; in assay [4], 17 µM.
